Values quoted from earlier work in patent publication US20140082761A1, “METHODS TO INCREASE PLANT PRODUCTIVITY” (PLANT SENSORY SYSTEMS, LLC, priority 2011, published 2014).

Tests used:
[1] = biological target: T1, sulfinoalanine decarboxylase (SAD) (Rattus norvegicus, UniProt Q64611); details: substrate of SAD (decarboxylation); literature values
T1 construct: in vitro assays on SAD isolated from rat; host or cells: enzyme isolated from rat
T1 sequence (Q64611 1-493): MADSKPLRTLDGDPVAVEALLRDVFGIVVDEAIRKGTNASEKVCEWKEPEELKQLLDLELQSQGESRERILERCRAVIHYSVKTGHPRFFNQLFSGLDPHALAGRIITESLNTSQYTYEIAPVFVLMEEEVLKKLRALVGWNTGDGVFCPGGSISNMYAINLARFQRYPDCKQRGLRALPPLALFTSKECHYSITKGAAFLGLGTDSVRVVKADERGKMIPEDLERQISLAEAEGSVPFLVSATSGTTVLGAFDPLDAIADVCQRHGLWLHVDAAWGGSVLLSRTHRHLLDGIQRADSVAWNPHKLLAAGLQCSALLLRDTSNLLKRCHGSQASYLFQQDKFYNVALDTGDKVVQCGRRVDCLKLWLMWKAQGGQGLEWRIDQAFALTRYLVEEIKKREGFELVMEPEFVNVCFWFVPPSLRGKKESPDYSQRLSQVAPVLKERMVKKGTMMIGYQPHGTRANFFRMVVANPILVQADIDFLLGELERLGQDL

SMILES | effect of exogenous application on plant growth and production (plants (crop)) | Km [1]
NCCS(=O)(=O)O [taurine, 2-aminoethane sulfonic acid] | increase crop harvest, yield, and biomass, increase seedling growth and increase photosynthetic capacity of isolated plant cells and chloroplasts | –
N[C@@H](CC(=O)O)C(=O)O [aspartate] | – | 11 mM
N[C@@H](CCC(=O)O)C(=O)O [glutamate] | – | 2.9 mM
